According to patent US20190185509A1, “2'2' CYCLIC DINUCLEOTIDES WITH PHOSPHONATE BOND ACTIVATING THE STING ADAPTOR PROTEIN” (INSTITUTE OF ORGANIC CHEMISTRY AND BIOCHEMISTRY ASCR, V.V.I., priority 2017, published 2019):

Legend:
[1] = target: T1, AQ STING (G230A-R293Q) (Homo sapiens, UniProt Q86WV6, G230A/H232R/R293Q); experiment: Differential Scanning Fluorimetry (DSF) with AQ STING; assay type: binding; conditions: thermal shift vs apoprotein; truncated human AQ STING 0.1 mg/ml; 150 μM CDN
T1 construct: truncated human WT STING or AQ STING (amino acid residues 140-343) with N-terminal 8×His and SUMO tag; 8xHis-SUMO (N, cleaved yes); made in house; host or cells: E. coli Rosetta-gami B (DE3)
T1 sequence (Q86WV6 140-343 G230A/H232R/R293Q): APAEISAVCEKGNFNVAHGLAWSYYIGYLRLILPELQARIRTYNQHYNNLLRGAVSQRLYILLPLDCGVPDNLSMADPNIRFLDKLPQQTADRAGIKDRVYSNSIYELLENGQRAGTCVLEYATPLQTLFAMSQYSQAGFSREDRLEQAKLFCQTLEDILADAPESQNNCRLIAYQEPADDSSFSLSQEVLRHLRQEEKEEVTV
Description: (§1) WT STING and AO STING Proteins
(§2) Purified PCR products were cleaved with restriction enzymes BamHI (cat. #R0136S, NEB, Ipswich, USA) and NotI (cat. #R0189S, NEB, Ipswich, USA) and cloned into the pSUMO vector linearized with the identical enzymes.
(§3) DNase I (cat. #D5025, Sigma Aldrich, Czech Republic) and RNase A (cat. #R6513, Sigma Aldrich, Czech Republic) were added (final concentration 50 μg/ml) together with MgCl2 (final concentration 5 mmol·l^−1) to the homogenate and bacteria were lysed using French Press G-M™ High-Pressure Cell Press Homogenizer (1500 psi, 3 cycles). […] The resin was poured into a chromatography column, washed with 50 ml buffer A (50 mmol·l^−1 TrisCl (pH 8.0), 800 mmol·l^−1 NaCl, 3 mmol·l^−1 β-mercaptol; 10% glycerol; 20 mmol·l^−1 imidazole) and 8-His-SUMO tagged STING proteins were eluted with 15 ml buffer A containing 300 mmol·l^−1 imidazole. […] Proteins were concentrated with Amicon® Ultra-15 10 K device (cat. #UFC901008, Merck Millipore, Billerica, USA) and flash frozen in liquid N2.
(§4) Differential Scanning Fluorimetry with WT STING and AQ STING
(§5) 20 μL solutions of the reaction mixtures were pipetted in triplicates into 96 well optical reaction plates and thermal denaturation of samples were performed on real time PCR cycler (LightCycler R 480 Instrument II-Roche, Basel, Switzerland). The first derivative of the thermal denaturation curves was performed to calculate denaturing temperatures of STING-CDN complexes and STING apoproteins. The thermal shift for each CDN was calculated by subtracting the average denaturing temperature of STING apoprotein from the average denaturing temperature of STING CDN complex.

[2] = target: T2, WT STING (Homo sapiens, UniProt Q86WV6, H232R); experiment: Digitonin assay using 293T wtSTING-FL reporter cells; assay type: cell-based; conditions: 293T wtSTING-FL cells, ISRE firefly luciferase reporter; 30 min in Digitonin buffer, then 5 hours; 8-point dose-response
Excerpt: ISRE Reporter Plasmid (pGL64.27-4×ISRE)
Two complementary oligonucleotides of the sequence […] […] […] […] […] […] […] The oligonucleotides were mixed in equal molar amounts, hybridized, and cleaved by restriction endonucleases HindIII (cat. #. R0104S, NEB, Ipswich, USA) and BglII (cat. #R0144S, NEB, Ipswich, USA). Ultimately, they were ligated into plasmid pGL4.27 (cat. #E6651, Promega, Madison, USA) linearized with the same enzymes. As result the sequence with four ISRE sites was placed upstream of the minimum promoter of firefly luciferase reporter gene.
After 5 minutes incubation at room temperature (RT), 250 μL of the mixture was added dropwise to the cells in one well. Cells were incubated 36 hours at 37° C. with 5% CO2, and then detached with 0.05% Trypsin and 0.22 g/L EDTA (both cat. #L0941, Biowest, Riverside, USA).
Transfected cells were seeded onto poly-D-lysine coated six well plates at density 50,000 cells per 1 cm^2 in DMEM medium with high glucose containing 10% heat inactivated FBS, 30 μg/mL blasticidin (cat. #ant-bl-05, InvivoGen, San Diego, USA), 0.06 mg/ml Penicillin G and 0.1 mg/ml Streptomycin Sulfate (both cat. #. L0018, Biowest, Riverside, USA). The medium was replenished every 3-4 days until visible colonies of cells resistant to blasticidin were formed.
Blasticidin resistant cells stably expressing WT STING were further transfected with pGL64.27-4×ISRE plasmid following the same procedure as described above. […] Homogeneous culture of stably double transfected cells was prepared by limiting dilution of cells in 96 well plates and wells with cells were selected that originated from a single cell.
The medium was removed next day and three fold serial dilutions of compounds in Digitonin buffer containing 50 mmol·l^−1 HEPES (cat. #H3375, Sigma Aldrich, Czech Republic) pH 7.0, 100 mmol·l^−1 KCl, 3 mmol·l^−1 MgCl2, 0.1 mmol·l^−1 DTT (cat. #D0632, Sigma Aldrich, Czech Republic), 85 mmol·l^−1 Sucrose (cat. #S7903, Sigma Aldrich, Czech Republic), 0.2% BSA (cat. #A2153, Sigma Aldrich, Czech Republic), 1 mmol·l^−1 ATP (cat. #A1852, Sigma Aldrich, Czech Republic), 0.1 mmol·l^−1 GTP (cat. #G8877, Sigma Aldrich, Czech Republic), and 10 μg/mL Digitonin A (cat. #D141, Sigma Aldrich, Czech Republic) were added to the cells. The buffer was removed after 30 minutes incubation at 37° C. with 5% CO2, the cells were washed once with 100 μl of cultivation medium, and 100 μl of medium was added to each well. The plates with cells were incubated for 5 hours at 37° C. with 5% CO2, 50 μl of the medium was removed and 30 μl of ONE-Glo™ Luciferase Assay System reagent (cat. #E6120, Promega, Madison, USA) was added to each well. Luminescence was read on Synergy H1 (Biotek, Winooski, USA).
Target sequence in this assay (Q86WV6 whole entry H232R): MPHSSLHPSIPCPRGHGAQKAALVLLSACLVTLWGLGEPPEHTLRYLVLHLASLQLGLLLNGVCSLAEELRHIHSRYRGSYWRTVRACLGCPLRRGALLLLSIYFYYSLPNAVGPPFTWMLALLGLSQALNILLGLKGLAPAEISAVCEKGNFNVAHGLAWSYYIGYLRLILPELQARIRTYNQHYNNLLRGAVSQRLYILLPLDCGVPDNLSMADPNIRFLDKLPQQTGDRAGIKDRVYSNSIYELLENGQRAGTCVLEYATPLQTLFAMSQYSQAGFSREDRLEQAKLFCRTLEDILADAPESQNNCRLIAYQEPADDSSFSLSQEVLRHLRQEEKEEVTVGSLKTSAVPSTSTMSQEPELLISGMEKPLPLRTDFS

[3] = target: T2, WT STING; experiment: Differential Scanning Fluorimetry (DSF) with WT STING; assay type: binding; parameters: truncated human WT STING or AQ STING (amino acid residues 140-343) with N-terminal 8×His and SUMO tag; 8xHis-SUMO (N, cleaved yes); made in house; host or cells: E. coli Rosetta-gami B (DE3); conditions: thermal shift vs apoprotein; truncated human WT STING 0.1 mg/ml; 150 μM CDN
Description: as §1, §2, §3, §4, §5
Target sequence in this assay (Q86WV6 140-343 H232R): as the sequence (Q86WV6 140-343 G230A/H232R/R293Q) above, with A91G, Q154R counted along it

SMILES | DSF ΔTm AQ STING [1] [°C] | EC50 [2] [µM] | DSF ΔTm WT STING [3] [°C]
Nc1ncnc2c1ncn2[C@@H]1O[C@@H]2OCP(=O)(O)O[C@@H]3[C@H](O)[C@@H](OCP(=O)(O)O[C@@H]1[C@@H]2O)O[C@H]3n1cnc2c(N)ncnc21 [Compound 11, (1R,6R,8R,9R,14R,16R,17S,18S)-8,16-bis(6-amino-9H-purin-9-yl)-3,11,17,18-tetrahydroxy-2,5,7,10,13,15-hexaoxa-3,11-diphosphatricyclo[12.2.1.1^6,9]octadecane 3,11-dioxide] | 7.9 | 4.2 | 2.5
Nc1ncnc2c1ncn2[C@@H]1O[C@@H]2COP(=O)(O)O[C@@H]3[C@H](O)[C@@H](COCP(=O)(O)O[C@@H]1[C@@H]2O)O[C@H]3n1cnc2c(N)ncnc21 [Compound 12, (1R,6R,8R,9R,15R,17R,18R,19R)-8,17-bis(6-amino-9H-purin-9-yl)-3,11,18,19-tetrahydroxy-2,4,7,10,13,16-hexaoxa-3,11-diphosphatricyclo[13.2.1.1^6,9]nonadecane 3,11-dioxide] | 6.3 | 6 | 2.0
C[C@]12OCP(=O)(O)O[C@H]3[C@H](n4cnc5c(N)ncnc54)O[C@](C)(OCP(=O)(O)O[C@@H]([C@H](n4cnc5c(N)ncnc54)O1)[C@@H]2O)[C@H]3O [Compound 13, (1R,6R,8R,9R,14R,16R,17S,18S)-8,16-bis(6-amino-9H-purin-9-yl)-3,11,17,18-tetrahydroxy-6,14-dimethyl-2,5,7,10,13,15-hexaoxa-3,11-diphosphatricyclo[12.2.1.1^6,9]octadecane 3,11-dioxide] |  |  | 0.6
Nc1ncnc2c1ncn2[C@@H]1O[C@@H]2OCP(=O)(O)O[C@@H]3[C@H](O)[C@@H](COP(=O)(O)O[C@@H]1[C@@H]2O)O[C@H]3n1cnc2c(N)ncnc21 [Compound 14, (1R,6R,8R,9R,14R,16R,17S,18R)-8,16-bis(6-amino-9H-purin-9-yl)-3,11,17,18-tetrahydroxy-2,4,7,10,13,15-hexaoxa-3,11-diphosphatricyclo[12.2.1.1^6,9]octadecane 3,11-dioxide] | 20.8 | 2.35 | 0.7
Nc1ncnc2c1ncn2[C@@H]1O[C@@H]2COP(=O)(O)O[C@H]3[C@H](O)[C@@H](COCP(=O)(O)O[C@@H]1[C@@H]2O)O[C@H]3n1cnc2c(N)ncnc21 [Compound 15, (1S,6R,8R,9R,15R,17R,18R,19R)-8,17-bis(6-amino-9H-purin-9-yl)-3,11,18,19-tetrahydroxy-2,4,7,10,13,16-hexaoxa-3,11-diphosphatricyclo[13.2.1.16,9]nonadecane 3,11-dioxide] | 5.5 | 16.4 | 1.7
